ChEMBL document CHEMBL1150586, “Goniolactones A-F, six new styrylpyrone derivatives from the roots of Goniothalamus cheliensis” (J Nat Prod, 2002)

Assays:
Assay type in all cases: functional, cell-based
[1] = tested on: HCT-8; experiment: Cytotoxicity against human HCT8 cells after 5 days by MTT assay; settings: HCT-8, 120 h
[2] = tested on: KB; experiment: Cytotoxicity against human KB cells after 5 days by MTT assay; settings: 120 h
[3] = tested on: A2780; experiment: Cytotoxicity against human A2780 cells after 5 days by MTT assay; settings: A2780, 120 h

SMILES: O=C1C=CC[C@H]([C@H](O)[C@@H](c2ccccc2)c2c(O)cc3c(c2O)C(=O)C[C@@H](c2ccccc2)O3)O1 [GONIOLACTONE B]
- IC50 [1]: 4.43 µM
- IC50 [2]: 7.23 µM
- IC50 [3]: 7.4 µM
